Data set [1] relates to DSS-Induced inflammatory Bowel Disease Models in Mice. In words: DSS-induced inflammatory bowel disease model in mice (Biological Example 2, 0.9% DSS). Type of data set: in vivo, C57BL/6 mice. To be noted: for colon length (Mean ± SD): 0.9% DSS 5 days, end of experiment. The procedure: 66 female C57BL/6 mice were randomly divided into 6 groups: normal control group, model control group, cyclosporine A (25 mg/Kg), 5-ASA (100 mg/Kg), the compound in Example 27 (30 mg/Kg) and the compound in Example 26 (30 mg/Kg). There were 11 mice in each group (see Table 4 below). Besides the normal control group, the remaining groups were induced with 0.9% DSS for 5 days. The day of induction was the first day of the test and then normal drinking water was administered for 4 days. The normal control group was administered with normal drinking water all the time. The model control group, 5-ASA group, the compound in Example 27 group and the compound in Example 26 group were administered with 1% CMC-Na or the corresponding drug every day from the first day of the experiment to the end of the experiment. The cyclosporine A group was administered with cyclosporine A every day from the first day of experiment to the fifth day of the experiment and was administered with the corresponding volume of 1% CMC-Na every day from the sixth day to the end of the experiment due to toxicity. The normal control group was administered with the corresponding volume of 1% CMC-Na every day. The animals were treated and the indexes were tested at the end of the experiment.
The compound in Example 27, the compound in Example 26, 5-ASA or Cyclosporine A: Preparation Method: Suspended with 1% CMC-Na, and prepared when it was needed.
One-Way Anova test was performed with SPSS 17.0. The colony length was analyzed statistically between groups.

For data set [2] the test system is unchanged. In words: DSS-induced inflammatory bowel disease model in mice (Biological Example 5, 1.3% DSS). Type of data set: in vivo, C57BL/6 mice. The note with it: 30 mg/Kg i.g. Q.D, 1.3% DSS days 0-5; for inhibition in vivo at 30 mg/kg: Mus musculus, po, read-out: Inhibitory Rate of Colonic Reduction. As to the method: 40 healthy female C57BL/6 mice having weight of 16-19 g were randomly divided into 4 groups in accordance with weight. There were 10 mice in each group (see Table 6 below). The first day of the experiment was recorded as Day 0. The administration regimen and induction regimen were detailed in Table 6. The change in weight of experimental animals was recorded every day. […] Samples of animal colonic tissues were obtained to measure the length. One-way ANOVA analysis of mice weights was performed by SPSS22. Statistical analyses between groups were performed. Mann-Whitney U non-parametric test was performed on the length of colon.
The experimental method used in the present biological example is identical to those in Biological Example 3.
One-way ANOVA analysis of mice body weights and colonic weights per length was performed by SPSS22. Statistical analyses between groups were performed.
Calculation Formula of Inhibitory Rate of Colonic Reduction: (Length of Colon in Administration Group−Length of Colon in Model Group)/(Length of Colon in Blank Group−Length of Colon in Model Group)

In the next data set the test system is ICR mice. In words: Acute toxicity experiment of single oral administration in mice. The class given is in vivo. To be noted: 1000 mg/Kg single oral dose. The gist of the method:
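Fasted ICR mice (19–21 g, 3 male and 3 female per group) received a single oral dose of 1000 mg/Kg, given first to one of each sex, then to the remaining four. Acute signs were scored over the first 15 min, then state, deaths and daily body weight over 7 days.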

In the case of `Nc1ccc(O)c(C(=O)O)c1` [Example 5-ASA, 5-aminosalicylic acid, reference compound], the “colon length (Mean ± SD)” value in data set [1] (100 mg/Kg i.g. Q.D) is 6.1 ± 0.4 cm.
In the case of `COCCCCN1C(=O)CCC(N2C(=O)c3cccc(N)c3C2=O)C1=O` (stereo not drawn) [Example 22, 4-amino-2-(1-(4-methoxybutyl)-2,6-dioxopiperidin-3-yl)isoindolin-1,3-dione], the “Length (cm, Mean ± SD) of colon” value in data set [2] is listed as 6.9 ± 0.4 cm. The inhibition in vivo at 30 mg/kg in data set [2] is 100%. In addition, the “Daily Body Weight of Tested Female Mice (Mean ± SD)” value in the data set on ICR mice (Day 1) is given as 18.5 ± 0.6 g; with ICR mice (Day 2) it was 21.8 ± 0.3 g; in the data set with ICR mice (Day 3), 22.9 ± 0.4 g; in the data set with ICR mice (Day 4), 24.0 ± 1.0 g; in the data set with ICR mice (Day 5), 25.0 ± 0.4 g; with ICR mice (Day 6), 25.3 ± 0.6 g. In addition, the “Daily Body Weight of Tested Female Mice (Mean ± SD)” value with ICR mice (Day 7) amounted to 25.6 ± 0.2 g. The “Daily Body Weight of Tested Male Mice (Mean ± SD)” value with ICR mice (Day 1) was determined as 17.1 ± 0.3 g; in the data set with ICR mice (Day 2), 22.9 ± 0.8 g; in the data set with ICR mice (Day 3), 23.5 ± 0.9 g; with ICR mice (Day 4) it was 25.2 ± 0.5 g; in the data set with ICR mice (Day 5) it was 27.2 ± 1.9 g; in the data set on ICR mice (Day 6), 27.1 ± 1.8 g. In addition, in the data set on ICR mice (Day 7), the “Daily Body Weight of Tested Male Mice (Mean ± SD)” value was determined as 27.4 ± 1.9 g.
In the case of `COCCN1C(=O)CCC(N2C(=O)c3cccc(O)c3C2=O)C1=O` (stereo not drawn) [Example 23, 4-hydroxy-2-(1-(2-methoxyethyl)-2,6-dioxopiperidin-3-yl)isoindolin-1,3-dione], the “Length (cm, Mean ± SD) of colon” value in data set [2] came out at 6.9 ± 0.5 cm. The inhibition in vivo at 30 mg/kg in data set [2] is 100%. The “Daily Body Weight of Tested Female Mice (Mean ± SD)” value in the data set on ICR mice (Day 1) was 19.1 ± 0.6 g; in the data set on ICR mice (Day 2), 22.4 ± 0.4 g; in the data set on ICR mice (Day 3), 23.0 ± 0.1 g; in the data set with ICR mice (Day 4) it was 23.0 ± 0.1 g; in the data set with ICR mice (Day 5), 24.6 ± 0.4 g; with ICR mice (Day 6), 24.8 ± 0.7 g. The “Daily Body Weight of Tested Female Mice (Mean ± SD)” value in the data set with ICR mice (Day 7) is 24.6 ± 0.4 g. Besides, the “Daily Body Weight of Tested Male Mice (Mean ± SD)” value in the data set with ICR mice (Day 1) stood at 19.4 ± 0.8 g; in the data set on ICR mice (Day 2), 24.6 ± 1.2 g; with ICR mice (Day 3), 24.5 ± 0.6 g; in the data set on ICR mice (Day 4), 24.5 ± 0.6 g; with ICR mice (Day 5) it was 25.4 ± 1.2 g; in the data set on ICR mice (Day 6) it was 28.1 ± 0.8 g. In the data set with ICR mice (Day 7), the “Daily Body Weight of Tested Male Mice (Mean ± SD)” value was 29.0 ± 0.8 g. Moreover, the “Summary of toxic response of tested animals in 7 Days” value in the data set with ICR mice (Female) and in the data set on ICR mice (Male) was “Abnormality was not observed in 7 days of the test” in each case.
On to `COCCN1C(=O)CCC(N2C(=O)c3cccc(C)c3C2=O)C1=O` (stereo not drawn) [Example 24, 4-methyl-2-(1-(2-methoxyethyl)-2,6-dioxopiperidin-3-yl)-isoindolin-1,3-dione], for which the “Length (cm, Mean ± SD) of colon” value in data set [2] was 6.7 ± 0.6 cm. For the same molecule, in data set [2], the inhibition in vivo at 30 mg/kg stood at 81.8%. In addition, the “Daily Body Weight of Tested Female Mice (Mean ± SD)” value came to 18.4 ± 0.7 g with ICR mice (Day 1); 22.4 ± 1.0 g in the data set with ICR mice (Day 2); 23.4 ± 1.0 g in the data set on ICR mice (Day 3); 23.6 ± 0.9 g in the data set with ICR mice (Day 4); 24.3 ± 0.6 g with ICR mice (Day 5); 24.7 ± 0.6 g with ICR mice (Day 6). The “Daily Body Weight of Tested Female Mice (Mean ± SD)” value in the data set on ICR mice (Day 7) is on record as 24.8 ± 1.5 g. The “Daily Body Weight of Tested Male Mice (Mean ± SD)” value was 17.7 ± 0.2 g in the data set with ICR mice (Day 1); 22.3 ± 0.7 g in the data set with ICR mice (Day 2); 24.5 ± 1.0 g in the data set on ICR mice (Day 3); 25.2 ± 1.0 g in the data set on ICR mice (Day 4); 27.2 ± 1.3 g in the data set on ICR mice (Day 5); 28.1 ± 2.0 g with ICR mice (Day 6). In the data set with ICR mice (Day 7), the “Daily Body Weight of Tested Male Mice (Mean ± SD)” value is recorded as 28.9 ± 1.9 g.
For `COCCCN1C(=O)CCC(N2C(=O)c3cccc(N)c3C2=O)C1=O` (stereo not drawn) [Example 26, 4-amino-2-(1-(3-methoxypropyl)-2,6-dioxopiperidin-3-yl)isoindolin-1,3-dione], the “Daily Body Weight of Tested Female Mice (Mean ± SD)” value was 18.0 ± 0.7 g in the data set with ICR mice (Day 1); 21.9 ± 0.3 g in the data set with ICR mice (Day 2); 22.1 ± 0.5 g with ICR mice (Day 3); 22.4 ± 0.2 g in the data set with ICR mice (Day 4); 22.7 ± 0.3 g in the data set on ICR mice (Day 5); 22.6 ± 0.3 g with ICR mice (Day 6). Further, the “Daily Body Weight of Tested Female Mice (Mean ± SD)” value in the data set with ICR mice (Day 7) worked out at 22.4 ± 0.2 g. Moreover, the “Daily Body Weight of Tested Male Mice (Mean ± SD)” value stood at 18.7 ± 0.8 g in the data set on ICR mice (Day 1); 23.4 ± 0.5 g with ICR mice (Day 2); 25.0 ± 0.6 g in the data set with ICR mice (Day 3); 26.6 ± 1.4 g with ICR mice (Day 4); 27.3 ± 1.3 g in the data set with ICR mice (Day 5); 28.3 ± 1.3 g in the data set with ICR mice (Day 6). In addition, the “Daily Body Weight of Tested Male Mice (Mean ± SD)” value with ICR mice (Day 7) is listed as 28.8 ± 1.4 g. Besides, the “Summary of toxic response of tested animals in 7 Days” value in the data set with ICR mice (Female) and with ICR mice (Male) was “Abnormality was not observed in 7 days of the test” throughout. In addition, the “body weights during the whole experiment compared with model control group” value in data set [1] (30 mg/Kg i.g. Q.D, 0.9% DSS) is reported as “higher than that of the model control group”. In addition, the “colon length (Mean ± SD)” value in data set [1] (30 mg/Kg i.g. Q.D) is 6.3 ± 0.5 cm.

The values above are taken from patent US11873287B2, “Piperidine-2,6-dione derivatives and ulcerative colitis treating” (TIANJIN HEMAY PHARMACEUTICAL SCI-TECH CO., LTD, priority 2016, dated 2024).
